Laboratory results reported in US20130274210A1, “DENDRIMERS WITH A SACCHARIDE ENDING FOR ANTI-INFLAMMATORY PURPOSES” (UNIVERSITE PAUL SABATIER TOULOUSE III, priority 2010, published 2013).

Key:
[1] = Solubility (properties of prepared molecules); type: physicochemical
[2] = system: human dendritic cells stimulated with LPS; conditions: stimulation by LPS, via DC-SIGN receptor; background statement; cited from earlier work

| Compound | solubility [1] | production of IL-10 by human dendritic cells [2] | production of pro-inflammatory cytokines by human dendritic cells [2] |
| --- | --- | --- | --- |
| NNC(=O)CCOC1OC(CO)C(O)C(O)C1O (centres unmarked) | soluble in H2O, MeOH, DMF |  |  |
| NNC(=O)CCCCCCCCOC1OC(CO)C(O)C(O)C1OC1OC(CO)C(O)C(O)C1O (centres unmarked) | soluble in H2O, MeOH, DMF |  |  |
| NNC(=O)CCCCCCCCOC1OC(CO)C(O)C(O)C1OC1OC(CO)C(O)C(O)C1OC1OC(CO)C(O)C(O)C1O (centres unmarked) | soluble in H2O, MeOH, DMF |  |  |
| Mannosylated lipoarabinomannan [ManLAM] |  | increase in the production of IL-10 | decrease in the production of pro-inflammatory cytokines |
